Measurements as given in PubChem BioAssay (NCI).
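Cells were grown in 96-well plates and exposed to each compound for 48 hours at five concentrations; endpoints were interpolated linearly between bracketing concentrations, or set to the highest concentration if not reached. The concentration for 50% growth inhibition is given as GI50. Definition used: TGI = concentration required for complete inhibition of growth.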

Experiments:
Experiment in all cases: NCI anticancer screen, dose series, 48 h
SW-620 colon = system: SW-620 colon
UACC-62 melanoma = system: UACC-62 melanoma
SF-539 CNS = system: SF-539 CNS
ACHN renal = system: ACHN renal
HOP-92 NSCLC = system: HOP-92 NSCLC
MALME-3M melanoma = system: MALME-3M melanoma
LOX IMVI melanoma = system: LOX IMVI melanoma
SK-OV-3 ovarian = system: SK-OV-3 ovarian
UO-31 renal = system: UO-31 renal
SK-MEL-2 melanoma = system: SK-MEL-2 melanoma

| SMILES | GI50 (SW-620 colon) | TGI (SW-620 colon) | GI50 (UACC-62 melanoma) | TGI (UACC-62 melanoma) | GI50 (SF-539 CNS) | TGI (SF-539 CNS) | GI50 (ACHN renal) | TGI (ACHN renal) | GI50 (HOP-92 NSCLC) | TGI (HOP-92 NSCLC) | GI50 (MALME-3M melanoma) | TGI (MALME-3M melanoma) | GI50 (LOX IMVI melanoma) | TGI (LOX IMVI melanoma) | GI50 (SK-OV-3 ovarian) | TGI (SK-OV-3 ovarian) | GI50 (UO-31 renal) | TGI (UO-31 renal) | GI50 (SK-MEL-2 melanoma) | TGI (SK-MEL-2 melanoma) |
| --- | --- | --- | --- | --- | --- | --- | --- | --- | --- | --- | --- | --- | --- | --- | --- | --- | --- | --- | --- | --- |
| COc1ccc2c(c1)c(-c1cc(-c3cn(C)c4ccc(OC)cc34)[nH]n1)cn2C | > 100 µM | > 100 µM | > 100 µM | > 100 µM | > 100 µM | > 100 µM | > 100 µM | > 100 µM | 60.7 µM | > 100 µM | > 100 µM | > 100 µM | > 100 µM | > 100 µM | > 100 µM | > 100 µM | > 100 µM | > 100 µM | > 100 µM | > 100 µM |
| Cc1nc2cc(Nc3nc(Nc4ccc(F)cc4)nc(-c4ccc(Cl)cc4)n3)ccc2n1Cc1ccccc1 | 7.55 µM | > 100 µM | 6.3 µM | > 100 µM | 11.3 µM | 28.7 µM | 3.89 µM | > 100 µM | 1.74 µM | 23.7 µM | 5.29 µM | 22.4 µM | 12.6 µM | > 100 µM | 10.9 µM | > 100 µM | 3.59 µM | > 100 µM | 4.07 µM | 41.1 µM |
| NC(=O)c1ncn(C2OC(CO)C(O)C2O)c1NC(=S)NC(=O)c1ccccc1 (stereo not given) | – | > 100 µM | – | > 100 µM | – | > 100 µM | – | > 100 µM | – | > 100 µM | – | > 100 µM | – | > 100 µM | – | > 100 µM | – | > 100 µM | – | > 100 µM |
| Cc1ccc2c(C(C[N+](=O)[O-])c3ccco3)c(-c3ccccc3)[nH]c2c1 (stereo not given) | 11.4 µM | > 100 µM | 26.8 µM | > 100 µM | 30.6 µM | > 100 µM | 41.4 µM | > 100 µM | > 100 µM | > 100 µM | 21.8 µM | > 100 µM | 44.2 µM | > 100 µM | 37.2 µM | > 100 µM | 33.1 µM | > 100 µM | 38.2 µM | > 100 µM |
| CC(=O)c1c(Nc2ccc(F)c(F)c2F)[nH]c2c(F)cc(F)cc2c1=O | 0.346 µM | 18.7 µM | 0.233 µM | 0.836 µM | 0.322 µM | 4.33 µM | 0.296 µM | > 26.3 µM | 0.116 µM | 0.466 µM | 0.207 µM | 0.643 µM | 0.333 µM | 11.3 µM | 0.297 µM | 3.24 µM | 0.123 µM | 0.742 µM | 0.322 µM | 1.35 µM |
| Nc1ccc2c(SCC(=O)Nc3ccccc3-c3ccccc3NC(=O)CSc3c4ccccc4nc4cc(N)ccc34)c3ccccc3nc2c1 | – | 67.4 µM | – | 56.5 µM | – | 64.8 µM | – | > 86.6 µM | – | 79.9 µM | – | 56 µM | – | 66.2 µM | – | > 100 µM | – | 58.4 µM | – | 68 µM |
| CC[C@H](C)[C@H](NC(=O)N[C@@H](C)c1ccccc1)C(=O)N(C)[C@H](C[C@@H](OC(C)=O)c1nc(C(=O)N[C@@H](Cc2ccccc2)C[C@H](C)C(=O)OC)cs1)C(C)C | 26.4 µM | > 100 µM | 6.96 µM | > 100 µM | 20.2 µM | 56.6 µM | 29.3 µM | > 100 µM | 11.1 µM | 90.5 µM | > 100 µM | > 100 µM | 30.9 µM | > 100 µM | 42.2 µM | > 100 µM | 25.5 µM | > 100 µM | 18.3 µM | > 100 µM |
| CCCCCCCCCCCCCCCCCCNC(=O)[C@H]1CSC(c2ccc(F)c(OC)c2)N1 (stereo not given in full) | 0.5 µM | 1.54 µM | 0.639 µM | 1.28 µM | 1.77 µM | 6.26 µM | 2.71 µM | > 50 µM | 1.66 µM | 4.61 µM | 0.951 µM | 1.82 µM | 0.788 µM | 2.07 µM | 1.92 µM | 11.2 µM | 5.57 µM | > 50 µM | 0.887 µM | 1.67 µM |
| CC(=O)OC1Oc2cc(C)c(C)cc2-c2oc(=O)c(-c3ccccc3)cc21 (stereo not given) | 0.242 µM | > 100 µM | 0.289 µM | > 32.6 µM | 0.232 µM | 0.762 µM | 1.34 µM | > 100 µM | 1.98 µM | 61.8 µM | 0.407 µM | > 34.7 µM | 1.47 µM | > 100 µM | 0.407 µM | 37.3 µM | 0.499 µM | 35.9 µM | 0.572 µM | > 63.3 µM |
| CC(C)c1ccc2c(c1)c(SC(C)(C)C)c(CC(C)(C)C(=O)O)n2Cc1ccc(Cl)cc1 | 12.4 µM | 29.1 µM | 11.8 µM | 24 µM | 9.05 µM | 21.8 µM | 11.6 µM | 24.3 µM | 7.49 µM | 22.5 µM | 17.6 µM | 34 µM | 10.9 µM | 24.7 µM | 14.1 µM | 29.8 µM | 7.72 µM | 20.7 µM | 7.5 µM | 20.1 µM |
